According to patent publication US20150335025A1 (priority 2014, published 2015):

Test system: Bacillus anthracis Spores
Assay type: cell-based, Bacillus anthracis (Ames strain)

## O=S(=O)([O-])OOS(=O)(=O)[O-].[Na+].[Na+] [Klozur ™, sodium persulfate]
  Decontamination effectiveness against B. anthracis, topsoil compared with AZTD: not significantly different
  Inactivation of B. anthracis: complete inactivation
